Measurements as given in the CheMixHub ionic liquid set.
± gives the uncertainty stated by the source.

Experiment: xn = mol fraction of the nth substance listed

## CCCCCC[n+]1ccn(C)c1.F[B-](F)(F)F + CCCCCC[n+]1ccn(C)c1.[Cl-]
303 K, 101 kPa, x2 = 0
  electrical conductivity: 0.16 ± 0.013 S/m
303.15 K, 101 kPa, x2 = 0
  viscosity: 189 ± 57 mPa·s
308 K, 101 kPa, x2 = 0
  electrical conductivity: 0.205 ± 0.017 S/m
308.15 K, 101 kPa, x2 = 0
  viscosity: 145 ± 44 mPa·s
313 K, 101 kPa, x2 = 0
  electrical conductivity: 0.259 ± 0.021 S/m
313.15 K, 101 kPa, x2 = 0
  viscosity: 114 ± 34 mPa·s
318 K, 101 kPa, x2 = 0
  electrical conductivity: 0.322 ± 0.026 S/m
318.15 K, 101 kPa, x2 = 0
  viscosity: 90 ± 27 mPa·s
323 K, 101 kPa, x2 = 0
  electrical conductivity: 0.397 ± 0.032 S/m
323.15 K, 101 kPa, x2 = 0
  viscosity: 73 ± 22 mPa·s
328 K, 101 kPa, x2 = 0
  electrical conductivity: 0.481 ± 0.039 S/m
328.15 K, 101 kPa, x2 = 0
  viscosity: 60 ± 18 mPa·s
333 K, 101 kPa, x2 = 0
  electrical conductivity: 0.576 ± 0.046 S/m
333.15 K, 101 kPa, x2 = 0
  viscosity: 49 ± 15 mPa·s

## CN1CCCN(C)C1=O + CCCCCC[n+]1ccn(C)c1.[Cl-]
288.15 K, 100 kPa, x2 = 0
  viscosity: 4 ± 0.16 mPa·s
288.15 K, 100 kPa, x2 = 0.1011
  viscosity: 9.78 ± 0.44 mPa·s
288.15 K, 100 kPa, x2 = 0.1987
  viscosity: 29.2 ± 1.3 mPa·s
288.15 K, 100 kPa, x2 = 0.3083
  viscosity: 77.7 ± 3.5 mPa·s
288.15 K, 100 kPa, x2 = 0.3981
  viscosity: 184 ± 11 mPa·s
288.15 K, 100 kPa, x2 = 0.4957
  viscosity: 412 ± 32 mPa·s
288.15 K, 100 kPa, x2 = 0.6008
  viscosity: 897 ± 88 mPa·s
288.15 K, 100 kPa, x2 = 0.6983
  viscosity: 2019 ± 250 mPa·s
293.15 K, 100 kPa, x2 = 0
  viscosity: 3.51 ± 0.14 mPa·s
293.15 K, 100 kPa, x2 = 0.1011
  viscosity: 8.21 ± 0.35 mPa·s
293.15 K, 100 kPa, x2 = 0.1987
  viscosity: 23.3 ± 0.99 mPa·s
293.15 K, 100 kPa, x2 = 0.3083
  viscosity: 59.1 ± 2.5 mPa·s
293.15 K, 100 kPa, x2 = 0.3981
  viscosity: 133.6 ± 6.9 mPa·s
293.15 K, 100 kPa, x2 = 0.4957
  viscosity: 283 ± 19 mPa·s
293.15 K, 100 kPa, x2 = 0.6008
  viscosity: 600 ± 52 mPa·s
293.15 K, 100 kPa, x2 = 0.6983
  viscosity: 1294 ± 140 mPa·s
293.15 K, 100 kPa, x2 = 0.7961
  viscosity: 2416 ± 320 mPa·s
298.15 K, 100 kPa, x2 = 0
  viscosity: 3.11 ± 0.13 mPa·s
298.15 K, 100 kPa, x2 = 0.1011
  viscosity: 6.99 ± 0.3 mPa·s
298.15 K, 100 kPa, x2 = 0.1987
  viscosity: 18.82 ± 0.8 mPa·s
298.15 K, 100 kPa, x2 = 0.3083
  viscosity: 45.8 ± 1.9 mPa·s
298.15 K, 100 kPa, x2 = 0.3981
  viscosity: 99.3 ± 4.6 mPa·s
298.15 K, 100 kPa, x2 = 0.4957
  viscosity: 215 ± 13 mPa·s
298.15 K, 100 kPa, x2 = 0.6008
  viscosity: 418 ± 32 mPa·s
298.15 K, 100 kPa, x2 = 0.6983
  viscosity: 856 ± 83 mPa·s
298.15 K, 100 kPa, x2 = 0.7961
  viscosity: 1565 ± 180 mPa·s
303.15 K, 100 kPa, x2 = 0
  viscosity: 2.78 ± 0.11 mPa·s
303.15 K, 100 kPa, x2 = 0.1011
  viscosity: 6.01 ± 0.25 mPa·s
303.15 K, 100 kPa, x2 = 0.1987
  viscosity: 15.64 ± 0.66 mPa·s
303.15 K, 100 kPa, x2 = 0.3083
  viscosity: 36.3 ± 1.5 mPa·s
303.15 K, 100 kPa, x2 = 0.3981
  viscosity: 75.6 ± 3.3 mPa·s
303.15 K, 100 kPa, x2 = 0.4957
  viscosity: 157.4 ± 8.6 mPa·s
303.15 K, 100 kPa, x2 = 0.6008
  viscosity: 296 ± 20 mPa·s
303.15 K, 100 kPa, x2 = 0.6983
  viscosity: 583 ± 50 mPa·s
303.15 K, 100 kPa, x2 = 0.7961
  viscosity: 1044 ± 110 mPa·s
308.15 K, 100 kPa, x2 = 0
  viscosity: 2.5 ± 0.1 mPa·s
308.15 K, 100 kPa, x2 = 0.1011
  viscosity: 5.22 ± 0.22 mPa·s
308.15 K, 100 kPa, x2 = 0.1987
  viscosity: 13.14 ± 0.55 mPa·s
308.15 K, 100 kPa, x2 = 0.3083
  viscosity: 29.2 ± 1.2 mPa·s
308.15 K, 100 kPa, x2 = 0.3981
  viscosity: 63.8 ± 2.7 mPa·s
308.15 K, 100 kPa, x2 = 0.4957
  viscosity: 117.8 ± 5.8 mPa·s
308.15 K, 100 kPa, x2 = 0.6008
  viscosity: 215 ± 13 mPa·s
308.15 K, 100 kPa, x2 = 0.6983
  viscosity: 408 ± 31 mPa·s
308.15 K, 100 kPa, x2 = 0.7961
  viscosity: 708 ± 65 mPa·s
313.15 K, 100 kPa, x2 = 0
  viscosity: 2.266 ± 0.093 mPa·s
313.15 K, 100 kPa, x2 = 0.1011
  viscosity: 4.59 ± 0.19 mPa·s
313.15 K, 100 kPa, x2 = 0.1987
  viscosity: 10.05 ± 0.42 mPa·s
313.15 K, 100 kPa, x2 = 0.3083
  viscosity: 23.9 ± 1 mPa·s
313.15 K, 100 kPa, x2 = 0.3981
  viscosity: 50.5 ± 2.1 mPa·s
313.15 K, 100 kPa, x2 = 0.4957
  viscosity: 90.1 ± 4 mPa·s
313.15 K, 100 kPa, x2 = 0.6008
  viscosity: 158 ± 8.6 mPa·s
313.15 K, 100 kPa, x2 = 0.6983
  viscosity: 294 ± 20 mPa·s
313.15 K, 100 kPa, x2 = 0.7961
  viscosity: 496 ± 41 mPa·s
318.15 K, 100 kPa, x2 = 0
  viscosity: 2.064 ± 0.085 mPa·s
318.15 K, 100 kPa, x2 = 0.1011
  viscosity: 4.06 ± 0.17 mPa·s
318.15 K, 100 kPa, x2 = 0.1987
  viscosity: 8.62 ± 0.36 mPa·s
318.15 K, 100 kPa, x2 = 0.3083
  viscosity: 19.81 ± 0.83 mPa·s
318.15 K, 100 kPa, x2 = 0.3981
  viscosity: 40.6 ± 1.7 mPa·s
318.15 K, 100 kPa, x2 = 0.4957
  viscosity: 70.2 ± 3 mPa·s
318.15 K, 100 kPa, x2 = 0.6008
  viscosity: 121 ± 6 mPa·s
318.15 K, 100 kPa, x2 = 0.6983
  viscosity: 215 ± 13 mPa·s
318.15 K, 100 kPa, x2 = 0.7961
  viscosity: 357 ± 26 mPa·s
323.15 K, 100 kPa, x2 = 0
  viscosity: 1.891 ± 0.077 mPa·s
323.15 K, 100 kPa, x2 = 0.1011
  viscosity: 3.63 ± 0.15 mPa·s
323.15 K, 100 kPa, x2 = 0.1987
  viscosity: 7.47 ± 0.31 mPa·s
323.15 K, 100 kPa, x2 = 0.3083
  viscosity: 16.38 ± 0.68 mPa·s
323.15 K, 100 kPa, x2 = 0.3981
  viscosity: 33 ± 1.4 mPa·s
323.15 K, 100 kPa, x2 = 0.4957
  viscosity: 55.6 ± 2.3 mPa·s
323.15 K, 100 kPa, x2 = 0.6008
  viscosity: 93.6 ± 4.2 mPa·s
323.15 K, 100 kPa, x2 = 0.6983
  viscosity: 163.7 ± 9 mPa·s
323.15 K, 100 kPa, x2 = 0.7961
  viscosity: 261 ± 17 mPa·s
328.15 K, 100 kPa, x2 = 0
  viscosity: 1.737 ± 0.071 mPa·s
328.15 K, 100 kPa, x2 = 0.1011
  viscosity: 3.25 ± 0.14 mPa·s
328.15 K, 100 kPa, x2 = 0.1987
  viscosity: 6.53 ± 0.27 mPa·s
328.15 K, 100 kPa, x2 = 0.3083
  viscosity: 13.92 ± 0.58 mPa·s
328.15 K, 100 kPa, x2 = 0.3981
  viscosity: 27.5 ± 1.1 mPa·s
328.15 K, 100 kPa, x2 = 0.4957
  viscosity: 44.6 ± 1.9 mPa·s
328.15 K, 100 kPa, x2 = 0.6008
  viscosity: 73.9 ± 3.2 mPa·s
328.15 K, 100 kPa, x2 = 0.6983
  viscosity: 124.9 ± 6.2 mPa·s
328.15 K, 100 kPa, x2 = 0.7961
  viscosity: 196 ± 11 mPa·s
333.15 K, 100 kPa, x2 = 0
  viscosity: 1.595 ± 0.065 mPa·s
333.15 K, 100 kPa, x2 = 0.1011
  viscosity: 2.94 ± 0.12 mPa·s
333.15 K, 100 kPa, x2 = 0.1987
  viscosity: 5.75 ± 0.24 mPa·s
333.15 K, 100 kPa, x2 = 0.3083
  viscosity: 12.29 ± 0.51 mPa·s
333.15 K, 100 kPa, x2 = 0.3981
  viscosity: 23.11 ± 0.96 mPa·s
333.15 K, 100 kPa, x2 = 0.4957
  viscosity: 36.3 ± 1.5 mPa·s
333.15 K, 100 kPa, x2 = 0.6008
  viscosity: 58.6 ± 2.4 mPa·s
333.15 K, 100 kPa, x2 = 0.6983
  viscosity: 96.8 ± 4.4 mPa·s
333.15 K, 100 kPa, x2 = 0.7961
  viscosity: 148.4 ± 7.8 mPa·s

## CCCCCC[n+]1ccn(C)c1.F[B-](F)(F)F + CCCCCO
315 K, 101.33 kPa, x2 = 0.865
  viscosity: 5.31 ± 0.53 mPa·s
315.35 K, 101.33 kPa, x2 = 0.865
  viscosity: 4.93 ± 0.2 mPa·s
315.39 K, 101.33 kPa, x2 = 0.865
  viscosity: 4.9 ± 0.19 mPa·s
315.5 K, 101.33 kPa, x2 = 0.865
  viscosity: 4.85 ± 0.17 mPa·s
315.63 K, 101.33 kPa, x2 = 0.865
  viscosity: 4.78 ± 0.15 mPa·s
315.79 K, 101.33 kPa, x2 = 0.865
  viscosity: 4.73 ± 0.15 mPa·s
315.84 K, 101.33 kPa, x2 = 0.865
  viscosity: 4.71 ± 0.15 mPa·s
315.86 K, 101.33 kPa, x2 = 0.865
  viscosity: 4.71 ± 0.15 mPa·s
318.02 K, 101.33 kPa, x2 = 0.865
  viscosity: 4.19 ± 0.13 mPa·s

## CC(=O)[O-].CCCC[N+](CCCC)(CCCC)CCCC + CCCCN + O
303.15 K, 100 kPa, x2 = 0, x3 = 0.0291
  viscosity: 680 ± 230 mPa·s
303.15 K, 100 kPa, x2 = 0.0965, x3 = 0.0347
  viscosity: 390 ± 110 mPa·s
303.15 K, 100 kPa, x2 = 0.194, x3 = 0.0301
  viscosity: 188 ± 33 mPa·s
303.15 K, 100 kPa, x2 = 0.3198, x3 = 0.031
  viscosity: 78 ± 5 mPa·s
303.15 K, 100 kPa, x2 = 0.4873, x3 = 0.0253
  viscosity: 28 ± 2 mPa·s
303.15 K, 100 kPa, x2 = 0.6575, x3 = 0.0186
  viscosity: 16 ± 1 mPa·s
303.15 K, 100 kPa, x2 = 0.7882, x3 = 0.0148
  viscosity: 11 ± 1 mPa·s
303.15 K, 100 kPa, x2 = 0.8893, x3 = 0.0119
  viscosity: 9 ± 1 mPa·s

## CCC[NH3+].O=[N+]([O-])[O-] + CCCC[NH3+].O=[N+]([O-])[O-]
293.15 K, 101 kPa, frequency 0.00293 MHz, x1 = 0.5
  electrical conductivity: 0.496 S/m
293.15 K, 101 kPa, x1 = 0.5
  viscosity: 100.4 mPa·s
313.15 K, 101 kPa, frequency 0.00293 MHz, x1 = 0.5
  electrical conductivity: 1.02 S/m
313.15 K, 101 kPa, x1 = 0.5
  viscosity: 45.4 mPa·s
323.15 K, 101 kPa, frequency 0.00293 MHz, x1 = 0.5
  electrical conductivity: 1.36 S/m
323.15 K, 101 kPa, x1 = 0.5
  viscosity: 32.6 mPa·s
328.15 K, 101 kPa, x1 = 0.5
  viscosity: 28.1 mPa·s
343.15 K, 101 kPa, x1 = 0.5
  viscosity: 18.8 mPa·s
